Tests used:
[1] = test system: ZR-75-1 cells; assay: Cell cycle distribution, apoptosis and necrosis by flow cytometry, ZR-75-1; format: cell-based, human; conditions: ZR-75-1, 5 μM; for necrosis (propidium iodide): detectable at 72 h, more prominent at 96 h
Method: FIGS. 3A-D. MUC1/CQC peptide induces S phase arrest and necrosis. ZR-75-1 (FIGS. 2A-B) and MCF-7 (FIGS. 2C-D) cells were treated with 5 μM MUC1/CQC or MUC1/AQA for 3 and 4 d. Cells were fixed and analyzed for cell cycle distribution by flow cytometry (FIGS. 2A and 2C). The percentage of cells in G1, S and G2/M phases is included in the panels. Cells were also stained with propidium iodide and analyzed by flow cytometry for necrosis (FIGS. 2B and 2D). The percentage of necrotic cells is included in the panels.
Cells were harvested, washed with PBS, fixed with 80% ethanol, and incubated in PBS containing 40 μg/ml RNAse and 40 μg/ml propidium iodide for 30 min at 37° C. Cell cycle distribution was determined by flow cytometry. Sub-G1 DNA content was assessed by staining ethanol-fixed and citrate buffer-permeabilized cells with propidium iodide and monitoring by flow cytometry as described (Yin et al., 2007). For assessment of necrosis, cells were incubated with 1 μg/ml propidium iodide/PBS for 5 min at room temperature and then monitored by flow cytometry as described (Yin et al., 2007).

[2] = biological target: T1, MUC1-C (Homo sapiens, UniProt P15941); assay: Immunoblot of whole cell and nuclear MUC1-C levels in ZR-75-1 cells; format: cell-based; set-up: Human ZR-75-1 and MCF-7 breast cancer cells overexpress endogenous MUC1; endogenous in cells; host or cells: ZR-75-1; MCF-7; conditions: ZR-75-1, 5 μM peptide, 3 d; for nuclear MUC1-C levels: nuclear lysates; for cellular MUC1-C levels: whole cell lysates
T1 sequence (P15941 1098-1255 limits assumed): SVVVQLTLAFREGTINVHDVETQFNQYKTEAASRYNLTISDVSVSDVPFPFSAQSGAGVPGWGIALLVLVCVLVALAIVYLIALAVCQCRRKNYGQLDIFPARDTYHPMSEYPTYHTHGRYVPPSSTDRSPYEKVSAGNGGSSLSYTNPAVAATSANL
Method: FIGS. 2A-C. MUC1/CQC peptide blocks nuclear localization of MUC1-C. (FIG. 2A) ZR-75-1 cells were incubated with 5 μM FITC-labeled MUC1/CQC peptide for the indicated times and then analyzed by flow cytometry. The mean fluorescence index (MFI) is included in each of the panels. (FIGS. 2B-C) ZR-75-1 (FIG. 2B) and MCF-7 (FIG. 2C) cells were incubated in the presence of 5 μM MUC1/CQC or MUC1/AQA peptide for 3 d. Whole cell lysates (WCL) (left panels) and nuclear lysates (right panels) were immunoblotted with the indicated antibodies.
Whole cell and nuclear lysates were prepared as described (Leng et al., 2007). Soluble proteins were subjected to immunoprecipitation with anti-Flag (Sigma, St. Louis, Mo.). Immunoprecipitates and soluble proteins were analyzed by immunoblotting with anti-His (Cell Signaling Technology, Danvers, Mass.), anti-GFP (Millipore, Danvers, Mass.), anti-Flag, anti-MUC1-C (Ab1; NeoMarkers, Fremont, Calif.), anti-lamin B (EMD, La Jolla, Calif.) or anti-β-actin (Sigma). Reactivity was detected with horseradish peroxidase-conjugated second antibodies and chemiluminescence.

[3] = test system: MCF-10A cells; assay: MCF-10A cell number (MTS), caspase-9 cleavage and PI uptake; format: cell-based, human; conditions: 3 d
Method: FIGS. 13A-D—Apigenin downregulates MUC1 and confers death of MCF-10A cells. (FIG. 13A) MCF-10A cells were treated with the indicated concentrations of apigenin and baicalein for 3 d, washed and then treated for an additional 3 d. Lysates were immunoblotted with the indicated antibodies. (FIG. 13B) MCF-10A cells were treated with the indicated concentrations apigenin (circles) and baicalein (squares) for 3 d. Viable cell number was determined by the MTS assay. The results (mean+SD of 3 determinations) are expressed as percentage of control growth in the presence of DMSO. (FIG. 13C) MCF-10A cells were treated with DMSO, 75 μM apigenin or 75 μM baicalein for 3 d. Lysates were subjected to immunoblotting with the indicated antibodies. (FIG. 13D) MCF-10A cells were treated with DMSO, 75 μM apigenin or 75 μM baicalein for 3 d, stained with propidium iodide and analyzed by flow cytometry.

[4] = test system: MUC1 promoter; assay: MUC1-C occupancy on the MUC1 promoter; format: cell-based
[5] = test system: BT474 cells; assay: BT474 viability (MTS) and colony formation; format: cell-based, human
Method: (§1) FIGS. 16A-D—Effects of apigenin on breast cancer cells without and with endogenous MUC1 expression. (FIG. 16A) Lysates from human MCF-7, HCC1937 and BT474 cells were immunoblotted with the indicated antibodies. (FIG. 16B) BT474 cells were treated with indicated concentrations of apigenin and baicalein for 3 d, washed and then treated for an additional 3 d. Lysates were immunoblotted with the indicated antibodies. (FIG. 16C) BT474 (triangles) and HCC1937 (squares) cells were treated with apigenin for 3 d. Viable cell numbers were determined by MTS assay. The results (mean+SD of 3 determinations) are expressed as percentage of control growth in the presence of DMSO. (FIG. 16D) BT474 cells were plated at a density of 5000 cells/6 cm dish. At 24 h after seeding, DMSO or apigenin at concentrations of 25, 50 and 75 μM was added to the medium. After 2 weeks, colonies were stained with crystal violet. The results (mean+SD of 3 determinations) are expressed as percentage of control colony formation in the presence of DMSO.

[6] = biological target: T1, MUC1-C; assay: Immunoblot of MUC1-C expression in BT474 cells; format: cell-based; set-up: endogenous in cells; conditions: BT474, 3 d then additional 3 d
Method: as §1

Row | Molecule | sub-G1 DNA content (apoptosis) [1] | cell cycle distribution ([1]; 72 h) | cell cycle distribution ([1]; 96 h) | necrosis (propidium iodide) [1] | nuclear MUC1-C levels [2] | cellular MUC1-C levels [2] | caspase-9 cleavage ([3]; 75 μM) | cell number (MTS) [3] | MUC1-C occupancy on the MUC1 promoter [4] | cell membrane integrity (PI uptake) ([3]; 75 μM) | clonogenic survival ([5]; BT474, 25, 50 and 75 μM, 2 weeks) | viability (MTS) ([5]; BT474, 3 d) | MUC1-C expression [6]
1 | CC[C@H](C)[C@H](NC(=O)[C@H](CC(=O)O)NC(=O)[C@H](CC(C)C)NC(=O)[C@H](CCC(N)=O)NC(=O)CNC(=O)[C@H](Cc1ccc(O)cc1)NC(=O)[C@H](CC(N)=O)NC(=O)[C@H](CCCCN)NC(=O)[C@H](CCCNC(=N)N)NC(=O)[C@H](CCCNC(=N)N)NC(=O)[C@H](CS)NC(=O)[C@H](CCC(N)=O)NC(=O)[C@H](CS)NC(=O)[C@@H](CCCNC(=N)N)NC(=O)[C@@H](CCCNC(=N)N)NC(=O)[C@@H](CCCNC(=N)N)NC(=O)[C@@H](CCCNC(=N)N)NC(=O)[C@@H](CCCNC(=N)N)NC(=O)[C@@H](CCCNC(=N)N)NC(=O)[C@@H](CCCNC(=N)N)NC(=O)[C@@H](CCCNC(=N)N)NC(=O)[C@H](N)CCCNC(=N)N)C(=O)N[C@@H](Cc1ccccc1)C(=O)N1CCC[C@H]1C(=O)O [MUC1/CQC] | little if any accumulation of cells with sub-G1 DNA content | substantial arrest in S phase | S phase population was decreased | induction of necrosis | decreases in nuclear MUC1-C levels | no effect |  |  |  |  |  |  | 
2 | O=c1cc(-c2ccccc2)oc2cc(O)c(O)c(O)c12 [Baicalein, 5,6,7-trihydroxyflavone, reference compound] |  |  |  |  |  |  | not | substantially less effective | not |  |  |  | 
3 | MUC1/AQA: control peptide in which the CQC motif was altered to AQA (SEQ ID NO: 11) (AQARRKNYGQLDIFP) [reference compound] |  |  |  | not | not | no effect |  |  |  |  |  |  | 
4 | O=c1cc(-c2ccc(O)cc2)oc2cc(O)cc(O)c12 [Apigenin, 4′,5,7-trihydroxyflavone] |  |  |  |  |  |  | caspase-9 cleavage | decreased MCF-10A cell number | blocked MUC1-C occupancy on the MUC1 promoter | loss of cell membrane integrity | concentration dependent decreases in clonogenic survival | loss of viability | downregulation of MUC1-C expression
